Experimental data: PMC5534107, “Sensitization of ASIC3 by proteinase-activated receptor 2 signaling contributes to acidosis-induced nociception” (Journal of Neuroinflammation, 2017)

Columns and labels:
[1] = tested on: heteromeric ASIC1a+3 channels expressed with PAR2 in CHO cells; experiment: Whole-cell patch clamp, heteromeric ASIC1a+3 channels expressed with PAR2 in CHO cells; assay type: cell-based, Chinese hamster; conditions: PAR2-AP 10^−5 M for 1 min; I pH 6.6; ASIC3:other subunit 1:3; n = 8
Description: (§1) ASIC3, ASIC1a, ASIC1b, ASIC2b, and PAR2 complementary DNAs (cDNAs) were used for heterologous expression in CHO cells as described previously (Wang et al., 2013). In brief, CHO cells were cultured at 37 °C in a humidified atmosphere of 5% CO2 and […] and passaged twice a week. Transient transfection of CHO cells was performed using HilyMax liposome transfection reagent (Dojindo Laboratories). CHO cells were maintained in F-12 Nutrient Mixture (added 1.176 g of NaHCO3/L medium) supplemented with 10% fetal bovine serum and 1% gluta-MAXTM-1 (100×; Invitrogen). When ASIC3 and PAR2 cDNAs were co-transfected, the ratio was kept at 1:1. All plasmids used contained, in addition to the desired ASIC3 cDNA, the coding sequence for enhanced green fluorescent protein to aid identification of transfected cells. Electrophysiological measurements were performed 24–48 h after transfection.
(§2) Whole-cell patch clamp and voltage clamp recordings were carried out at room temperature (22–25 °C) using a MultiClamp-700B amplifier and Digidata-1440A A/D converter (Axon Instruments, CA, USA). […]
(§3) Drugs purchased from Sigma and used in the experiments include hydrochloric acid, 2-furoyl-LIGRLO-NH2 (a PAR2-activating peptide (PAR2-AP)), trypsin, FSLLRY-NH2, APETx2, and capsazepine. […] The application pipette tips were positioned ∼30 μm away from the recorded neurons. […]

[2] = tested on: ASIC3 currents in CHO cells expressing alone ASIC3, but not expressing PAR2; experiment: Whole-cell patch clamp, CHO cells expressing ASIC3 alone (no PAR2); assay type: cell-based, Chinese hamster; conditions: 10^−5 M; P > 0.1; n = 10
Description: as §1, §2, §3

[3] = tested on: ASIC3-like currents in rat DRG neurons; experiment: Voltage clamp of proton-evoked ASIC3-like currents in acutely isolated rat DRG neurons; assay type: cell-based; conditions: 10^−5 M for 1 min; capsazepine 10 μM present; −60 mV; n = 9
From the text: The experimental protocol was approved by the animal research ethics committee of Hubei University of Science and Technology (No. 2016–67). All procedures conformed to international guidelines on the ethical use of animals, and every effort was made to minimize the number of animals used and their sufferings. Five- to 6-week-old Sprague–Dawley male rats were anesthetized with 7% chloral hydrate and then decapitated. The DRGs were taken out and transferred immediately into Dulbecco’s modified Eagle’s medium (DMEM, Sigma) at pH 7.4. After the removal of the surrounding connective tissues, the DRGs were minced with fine spring scissors and the ganglion fragments were placed in a flask containing 5 ml of DMEM in which trypsin (type II-S, Sigma) 0.5 mg/ml, collagenase (type I-A, Sigma) 1.0 mg/ml, and DNase (type IV, Sigma) 0.1 mg/ml had been dissolved and incubated at 35 °C in a shaking water bath for 25–30 min. Soybean trypsin inhibitor (type II-S, Sigma) 1.25 mg/ml was then added to stop trypsin digestion. The incubating solution was then replaced by external solution. Dissociated neurons were placed into a 35-mm Petri dish and kept for at least 1 h in normal external solution before the start of electrophysiological experiments. After plating of the DRG neurons, the neurons were used for experiments within 24 h. The neurons selected for electrophysiological experiment were 15–35 μm in diameter.
Whole-cell patch clamp and voltage clamp recordings were carried out at room temperature (22–25 °C) using a MultiClamp-700B amplifier and Digidata-1440A A/D converter (Axon Instruments, CA, USA). Recording pipettes were pulled using a Sutter P-97 puller (Sutter Instruments, CA, USA). The micropipettes were filled with internal solution containing (mM) KCl 140, MgCl2 2.5, HEPES 10, EGTA 11, and ATP 5; its pH was adjusted to 7.2 with KOH, and osmolarity was adjusted to 310 mOsm/L with sucrose. Cells were bathed in an external solution containing (mM) NaCl 150, KCl 5, CaCl2 2.5, MgCl2 2, HEPES 10, D-glucose 10; its osmolarity was adjusted to 330 mOsm/L with sucrose and its pH to 7.4. The resistance of the recording pipette was in the range of 3–6 MΩ. A small patch of membrane underneath the tip of the pipette was aspirated to form a giga seal, and then, a negative pressure was applied to rupture it, thus establishing a whole-cell configuration. The series resistance was compensated for by 70–80%. The adjustment of capacitance compensation was also done before recording the membrane currents. […]
as §3

With 2-furoyl-LIGRLO-NH2 [PAR2-AP] the “increase of peak current of heteromeric ASIC1a+3 channels” value [1] was 51.6 ± 6.5%, the “effect on I pH 6.6 in ASIC3-transfected CHO cells without PAR2” value [2] was “Neither PAR2-AP nor trypsin had an effect” and the “increase of peak amplitude of I pH 6.6 in DRG neurons after agonist pretreatment” value [3] was 57.1 ± 9.8%.
